Experiment: Example 1: kidney biomarkers (urea nitrogen, creatinine, GFR) in short bowel syndrome patients, every four weeks for 24 weeks; also sorted by >5% change from baseline
Format: in vivo, Human
Details: for CREATININE (RATE BLANKED) change from baseline −5% <= and <=5%, number of patients / CREATININE (RATE BLANKED) change from baseline −5% <= and <=5%, percent of patients / GFR change from baseline <−5%, number of patients / GFR change from baseline <−5%, percent of patients / GFR change from baseline >5%, number of patients / GFR change from baseline >5%, percent of patients / GFR change from baseline −5% <= and <=5%, number of patients / GFR change from baseline −5% <= and <=5%, percent of patients / UREA NITROGEN change from baseline <−5%, number of patients / UREA NITROGEN change from baseline <−5%, percent of patients / UREA NITROGEN change from baseline >5%, number of patients / UREA NITROGEN change from baseline >5%, percent of patients / UREA NITROGEN change from baseline −5% <= and <=5%, number of patients / UREA NITROGEN change from baseline −5% <= and <=5%, percent of patients / CREATININE (RATE BLANKED) change from baseline <−5%, number of patients / CREATININE (RATE BLANKED) change from baseline <−5%, percent of patients / CREATININE (RATE BLANKED) change from baseline >5%, number of patients / CREATININE (RATE BLANKED) change from baseline >5%, percent of patients: 0.1 mg/kg/day
Protocol: Human patients with short bowel syndrome were divided into three groups: a control group (16 total individuals) to receive placebo, an experimental group (35 total individuals) to receive teduglutide at 0.05 mg/kg/day throughout the study, and an experimental group (32 total individuals) to receive teduglutide at 0.1 mg/kg/day throughout the study. Patients were treated by subcutaneous injection of placebo or the appropriate dose of teduglutide. As individuals with short bowel syndrome are likely to experience associated liver and kidney disease, known biomarkers of liver and kidney function were monitored every four weeks, for 24 weeks. The liver biomarkers tested included total bilirubin, ALT and AST and ALP. The kidney biomarkers tested included urea nitrogen, creatinine and GFR. Before administration of placebo or teduglutide, diagnostic biomarker levels were tested to establish a baseline for each individual.
To visualize the effect of GLP-2 on the levels of the diagnostic biomarkers, the average change from baseline was calculated for the placebo and teduglutide treated groups for each visit after a baseline was established. The average change from baseline of each group is depicted in FIGS. 1-7. The numerical figures for each diagnostic biomarker at each time point are depicted in Table 1.
The raw data for this sorting is reproduced in Table 2 below.

## CC[C@H](C)[C@H](NC(=O)[C@H](Cc1ccccc1)NC(=O)[C@H](CC(=O)O)NC(=O)[C@H](CCCNC(=N)N)NC(=O)[C@H](C)NC(=O)[C@H](C)NC(=O)[C@H](CC(C)C)NC(=O)[C@H](CC(N)=O)NC(=O)[C@H](CC(=O)O)NC(=O)[C@H](CC(C)C)NC(=O)[C@@H](NC(=O)[C@@H](NC(=O)[C@H](CC(N)=O)NC(=O)[C@H](CCSC)NC(=O)[C@H](CCC(=O)O)NC(=O)[C@H](CC(=O)O)NC(=O)[C@H](CO)NC(=O)[C@H](Cc1ccccc1)NC(=O)[C@H](CO)NC(=O)CNC(=O)[C@H](CC(=O)O)NC(=O)CNC(=O)[C@@H](N)Cc1c[nH]cn1)[C@@H](C)O)[C@@H](C)CC)C(=O)N[C@@H](CC(N)=O)C(=O)N[C@@H](Cc1c[nH]c2ccccc12)C(=O)N[C@@H](CC(C)C)C(=O)N[C@H](C(=O)N[C@@H](CCC(N)=O)C(=O)N[C@H](C(=O)N[C@@H](CCCCN)C(=O)N[C@H](C(=O)N[C@H](C(=O)N[C@@H](CC(=O)O)C(=O)O)[C@@H](C)O)[C@@H](C)CC)[C@@H](C)O)[C@@H](C)CC [teduglutide]
Week 12
  CREATININE (RATE BLANKED) change from baseline −5% <= and <=5%, number of patients: 4
  CREATININE (RATE BLANKED) change from baseline −5% <= and <=5%, percent of patients: (12.5%)
  GFR change from baseline <−5%, number of patients: 11
  GFR change from baseline <−5%, percent of patients: (34.4%)
  GFR change from baseline >5%, number of patients: 9
  GFR change from baseline >5%, percent of patients: (28.1%)
  GFR change from baseline −5% <= and <=5%, number of patients: 10
  GFR change from baseline −5% <= and <=5%, percent of patients: (31.3%)
  UREA NITROGEN change from baseline <−5%, number of patients: 13
  UREA NITROGEN change from baseline <−5%, percent of patients: (40.6%)
  UREA NITROGEN change from baseline >5%, number of patients: 14
  UREA NITROGEN change from baseline >5%, percent of patients: (43.8%)
  UREA NITROGEN change from baseline −5% <= and <=5%, number of patients: 3
  UREA NITROGEN change from baseline −5% <= and <=5%, percent of patients: (9.4%)
Week 16
  CREATININE (RATE BLANKED) change from baseline <−5%, number of patients: 10
  CREATININE (RATE BLANKED) change from baseline <−5%, percent of patients: (31.3%)
  CREATININE (RATE BLANKED) change from baseline >5%, number of patients: 12
  CREATININE (RATE BLANKED) change from baseline >5%, percent of patients: (37.5%)
  CREATININE (RATE BLANKED) change from baseline −5% <= and <=5%, number of patients: 8
  CREATININE (RATE BLANKED) change from baseline −5% <= and <=5%, percent of patients: (25.0%)
  GFR change from baseline <−5%, number of patients: 12
  GFR change from baseline <−5%, percent of patients: (37.5%)
  GFR change from baseline >5%, number of patients: 12
  GFR change from baseline >5%, percent of patients: (37.5%)
  GFR change from baseline −5% <= and <=5%, number of patients: 6
  GFR change from baseline −5% <= and <=5%, percent of patients: (18.8%)
  UREA NITROGEN change from baseline <−5%, number of patients: 9
  UREA NITROGEN change from baseline <−5%, percent of patients: (28.1%)
  UREA NITROGEN change from baseline >5%, number of patients: 9
  UREA NITROGEN change from baseline >5%, percent of patients: (28.1%)
  UREA NITROGEN change from baseline −5% <= and <=5%, number of patients: 12
  UREA NITROGEN change from baseline −5% <= and <=5%, percent of patients: (37.5%)
Week 20
  CREATININE (RATE BLANKED) change from baseline <−5%, number of patients: 7
  CREATININE (RATE BLANKED) change from baseline <−5%, percent of patients: (21.9%)
  CREATININE (RATE BLANKED) change from baseline >5%, number of patients: 13
  CREATININE (RATE BLANKED) change from baseline >5%, percent of patients: (40.6%)
  CREATININE (RATE BLANKED) change from baseline −5% <= and <=5%, number of patients: 9
  CREATININE (RATE BLANKED) change from baseline −5% <= and <=5%, percent of patients: (28.1%)
  GFR change from baseline <−5%, number of patients: 11
  GFR change from baseline <−5%, percent of patients: (34.4%)
  GFR change from baseline >5%, number of patients: 8
  GFR change from baseline >5%, percent of patients: (25.0%)
  GFR change from baseline −5% <= and <=5%, number of patients: 10
  GFR change from baseline −5% <= and <=5%, percent of patients: (31.3%)
  UREA NITROGEN change from baseline <−5%, number of patients: 12
  UREA NITROGEN change from baseline <−5%, percent of patients: (37.5%)
  UREA NITROGEN change from baseline >5%, number of patients: 11
  UREA NITROGEN change from baseline >5%, percent of patients: (34.4%)
  UREA NITROGEN change from baseline −5% <= and <=5%, number of patients: 6
  UREA NITROGEN change from baseline −5% <= and <=5%, percent of patients: (18.8%)
Week 24
  CREATININE (RATE BLANKED) change from baseline <−5%, number of patients: 11
  CREATININE (RATE BLANKED) change from baseline <−5%, percent of patients: (34.4%)
  CREATININE (RATE BLANKED) change from baseline >5%, number of patients: 9
  CREATININE (RATE BLANKED) change from baseline >5%, percent of patients: (28.1%)
  CREATININE (RATE BLANKED) change from baseline −5% <= and <=5%, number of patients: 9
  CREATININE (RATE BLANKED) change from baseline −5% <= and <=5%, percent of patients: (28.1%)
  GFR change from baseline <−5%, number of patients: 6
  GFR change from baseline <−5%, percent of patients: (18.8%)
  GFR change from baseline >5%, number of patients: 14
  GFR change from baseline >5%, percent of patients: (43.8%)
  GFR change from baseline −5% <= and <=5%, number of patients: 9
  GFR change from baseline −5% <= and <=5%, percent of patients: (28.1%)
  UREA NITROGEN change from baseline <−5%, number of patients: 14
  UREA NITROGEN change from baseline <−5%, percent of patients: (43.8%)
  UREA NITROGEN change from baseline >5%, number of patients: 13
  UREA NITROGEN change from baseline >5%, percent of patients: (40.6%)
  UREA NITROGEN change from baseline −5% <= and <=5%, number of patients: 2
  UREA NITROGEN change from baseline −5% <= and <=5%, percent of patients: (6.3%)
Both groups receiving teduglutide
  percent of the group experiencing a decrease in GFR greater than 5% vs placebo: always less than the percent of the group receiving placebo
Groups receiving teduglutide, placebo increased
  creatinine levels, average change versus baseline (FIG. 9): remained stable or decreased slightly
